Source: patent US5561131A, “Defaunation method” (Mallinckrodt Veterinary, Inc., priority 1991, dated 1996)

Legend:
rumen bacteria [1] = test: In vitro bacterial gas inhibition; type: cell-based; details: at the concentration known to kill protozoa
Protocol: Compounds of Table 1 were also tested for toxicity bacteria. This involved removing protozoa from rumen liquor by centrifugation at 2,000 g for 5 minutes and collecting the bacterial rich supernatant. Nitrogen and energy substrate was added to the bacterial preparation which was then dispensed in triplicate 10 ml volumes over the same range of compound concentrations (50, 150, 250 and 500 ppm.) referred to in Example 2. Control tubes were placed after every second compound to enable the inhibition of gas resulting from the compound to be assessed. […] It can be seen that these compounds are selective in their mode of action, in that they are more toxic to protozoa than bacteria.

rumen ciliate protozoa [2] = test: In vitro activity of defaunation compounds against rumen ciliate protozoa; type: cell-based; details: 39° C., anaerobic, 3 hours, tested at 50, 150, 250 and 500 ppm
Protocol: Compounds of Table 1 were tested for their toxicity against rumen ciliate protozoa by firstly isolating protozoa from rumen liquor collected from faunated animals. The rumen liquor was then centrifuged at 500 g for five minutes and the supernatant discarded. The protozoal-rich sediment was then reconstituted in McDougal's artificial saliva. Residual bacteria were suppressed by using a combination of two antibiotics at low concentration. Nitrogen and energy substrate was optimized for the protozoal preparation. At all times the protozoal preparation was maintained at 39° C. and kept anaerobic.
Sixty milligrams of each the compounds of Table 1 were dissolved in 1.2 ml of dimethyl sulphoxide and dispersed in triplicate to achieve a final concentration of 50, 150, 250 and 500 ppm. Ten milliliters of protozoal preparation was then added to each tube. After every second compound, control tubes were included which contained everything except for compound. The tubes, to which a 5 ml glass syringe was attached, were then incubated for 3 hours in a water bath at 39° C. The production of gas causes the syringe plunger to be displaced.
At the end of the incubation period, the volume of gas produced was recorded and the viability of the protozoa assessed visually using a microscope. The toxicity of the compounds to protozoa was assessed from both the reduction in gas produced relative to the control and by direct observation of the protozoa for movement of cilia.

Sheep test: feed intake = type: in vivo
Protocol: (§1) In this trial the effect of defaunation by compounds 27, 30 and 37 (see Table 1) after 1 and 3 weeks were examined using penned sheep.
(§2) The compounds were each administered to two sheep as a single dose at 167 mg/kg body weight. Compositions containing each compound were prepared according to the method of Example 1. Sheep were penned and fed 1000 g/day of a chaffed oaten hay and Lucerne mixture (90/10). Protozoal and bacterial viabilities were monitored along with the feed intake of the sheep according to the methods taught in Examples 2, 3 and 7.

[3] = Effect of defaunation compounds on feed intake of sheep; type: in vivo; details: after dosing vs pre-dosing intake
Protocol: Sheep were allowed a minimum of three weeks to adapt to their ration of 900 g of oaten chaff and 100 g of Lucerne chaff. The pre-dosing level of intake for each animal was established from the mean of five days intake immediately prior to dosing. Any effects of administering the compound on feed intake was then determined by measuring the level of feed intake after dosing.
The criteria of classifying the effect on food intake are shown below.
Poor--greater than 50% reduction in feed intake during the first week after dosing.
Fair--greater than 50% reduction in feed intake on the day following dosing but less then 50% reduction one week after dosing.
OK--transient drop in feed intake which is less than 50% on the day after dosing.
Good--No reduction in feed intake following dosing.

protozoa [4] = test: Wool growth trial: protozoal number; type: in vivo; details: sheep, defaunated period, 167 mg/kg
Protocol: (§3) Seven sheep each were defaunated using a dose rate of 167 mg/kg. Compounds were administered by first mixing with 20 ml of ethanol and then with 200 ml of centrifuged rumen liquor. This solution was then administered via a flexible stomach tube directly into the rumen. The sheep were fed with a ration of 90% oaten chaff and 10% Lucerne chaff at a rate of 1000 g per day. The sheep were maintained in a defaunated state by their isolation from faunated sheep to prevent the possibility of refaunation. The sheep were allowed to adjust for 3 weeks after administering the compound before any wool growth measurements were taken.
(§4) At the start of the wool growth measurement period, a 10 cm square area of wool was removed from both sides of the sheep. After four weeks the same area was reclipped and the wool retained for scouring at the end of the trial.
(§5) The sheep then had protozoa introduced back into their rumen and were allowed to adjust for three weeks. Similarly, during the second four week period, the wool was clipped from the same patch area. The wool harvested during the two four week trial periods was then scoured of wool wax and extraneous material and weighed.

protozoa [5] = test: Sheep test: protozoal numbers; type: in vivo
Protocol: as §1, §2

[6] = Wool growth in defaunated sheep; type: in vivo; details: sheep, 167 mg/kg
Protocol: as §3, §4, §5

rumen bacteria [7] = test: Sheep test: bacterial gas production; type: in vivo
Protocol: as §1, §2

rumen ciliate protozoa [8] = test: Protozoal reduction in sheep; type: in vivo; design: concentration or dose not given beside the values; details: one week after dosing, relative to predosing numbers
Protocol: Defaunation compositions were prepared according to the method of Example 1.
Prior to dosing of the compound, a sample of rumen liquor (200 ml) was withdrawn to establish basal numbers of protozoa.
The sample was collected using a stomach tube, inserted into the rumen via a rumen cannula (fistulated animals) or per esophagus (intact animals). After straining the sample was well mixed using a magnetic stirrer and a 0.5 ml sample was withdrawn and added to 49.5 ml of a crystal violet stain. Protozoa were counted using a microscope and a Hawksley counting chamber.
One week after administering the compound, another rumen liquor sample was collected (as described above) and examined for the presence of protozoa. Where rumen ciliate protozoa were undetectable, a reduction or inhibition value of 100% was recorded. In general, most compounds expressed a strong inhibitory effect on protozoal populations.

rumen bacteria [9] = test: Bacterial viability in sheep after administering defaunation compounds; type: in vivo; details: gas production one week after dosing vs pre-dosing
Protocol: In order to establish what effect the compounds had on the viability of rumen bacteria, a sample of rumen liquor was collected prior to dosing of the compound. The sample was withdrawn under vacuum using a pre-warmed tube inserted into the rumen through a rumen cannula. The sample was collected in a pre-warmed (39° C.) flask, gassed with carbon dioxide and covered. Two-pre-warmed 30 ml centrifuge tubes were then filled with well mixed rumen liquor and centrifuged at 2000 rpm for 5 minutes. Half the volume of each tube was then poured into another pre-warmed tube without disturbing the sediment. Three lots of 10 ml of this rumen liquor were then pipetted into 15 ml tubes which contained 10 μL of urea solution (40% w/v and 300 μL of glucose solution (50% w/v). The urea and glucose acted as substrate for the bacteria. The tubes were then gassed with carbon dioxide, stoppered and placed in a water bath at 39° C. After 10 minutes a 5 ml glass syringe was secured into the stoppers (through which a hypodermic needle had been inserted) and the gas collected for five hours and recorded.
This bacterial viability measure was then repeated one week after dosing with each of the compounds referred to in Table 1. Defaunation compositions were prepared according to the method of Example 1. The amount of gas produced was then compared with the pre-dosing level. The criterion for classifying post-dosing bacterial viability is shown below:
Poor--reduction in post-dosing gas production relative to pre-dosing levels.
OK--post-dosing gas production the same as pre-dosing levels.
Good--increase in post-dosing gas production relative to pre-dosing levels.

mice = test: Mouse safety assessment; type: in vivo; details: oral gavage, 830, 415 and 217 mg/kg, observed for 2 days
Protocol: Compounds of Table 1 chosen for testing in sheep were first tested in mice for signs of toxicity. Because sheep are approximately 5 times more sensitive than mice to compounds dosed orally, the dose rates applied to mice were 5 times greater than the target dose rate of 500 ppm. in rumen liquor (83 mg/kg live weight) used for sheep. Each compound was screened at three different dose levels, high (830 mg/kg), medium (415 mg/kg) and low (217 mg/kg).
252 mg of compound was used for dilution into a high medium and low dose rate. 252 mg of compound was mixed with 3 ml of G1284 solution (4% w/v ethoxylated castor oil and 0.05% w/v simethicone), to form the high dose composition. The medium dose composition was formed by diluting 1.5 ml of the high dose with 1.5 ml of G1284 solution. The low dose composition was formed by diluting 1.5 ml of the medium dose with 1.5 ml of G1284 solution. Before the high dose could be diluted it was first manually ball milled in an effort to produce a fine suspension of the compound.
All mice were weighed before dosing to calculate the appropriate dose rate. The calculation for dose rate was: [formula]
Each mouse was dosed using the Gavage method. With this method the mouse is dosed orally by way of an angled hypodermic needle (18 g) with a smooth spherical end. It is gently placed down the esophagus. All care must be taken not to force the needle and injure the esophagus or dose into the lungs.
Observations were made at 10, 30, 60 and 120 minutes after dosing, then every 1 or 2 hours for the first 6 hours.
Mice were usually observed for 2 days.
Typically, few compounds fell within the poor classification. The majority of compounds tested were either in the fair or good classification.

SMILES	Bact. Gas Inhibition at the conc. required to kill protozoa (rumen bacteria [1])	Conc Required to Kill all Protozoa (rumen ciliate protozoa [2])	Feed Intake (Sheep test: feed intake; 1 week after 167 mg/kg)	Feed Intake (Sheep test: feed intake; 3 weeks after 167 mg/kg)	Feed Intake (Sheep test: feed intake; pre-dose (baseline))	Feed Intake [3]	Prot. Number (protozoa [4])	Protozoal Nos. (protozoa [5]; 1 week after 167 mg/kg)	Protozoal Nos. (protozoa [5]; 3 weeks after 167 mg/kg)	Protozoal Nos. (protozoa [5]; pre-dose (baseline))	Response To Defaun ([6]; clean wool growth defaunated vs refaunated)	Clean Wool Growth ([6]; defaunated period, 4 weeks, per midside patch)	Bacterial gas production (rumen bacteria [7]; 1 week after 167 mg/kg)	Bacterial gas production (rumen bacteria [7]; 3 weeks after 167 mg/kg)	Bacterial gas production (rumen bacteria [7]; pre-dose (baseline))	Protozoal Reduction (rumen ciliate protozoa [8])	Bacterial Viability (rumen bacteria [9])	Mouse Safety Assessment (mice)
Cc1ccc(Nc2nc(Cl)nc(Cl)n2)c(C)c1 [Compound 30, 2,4 dichloro-6-(2,4-dimethylanilino)-s-triazine]	33	150 ppm	625 g/day	740 g/day	887 g/day	Okay (transient drop, less than 50% at day 2)	0 per mL × 10^3	0 per mL × 10^3	0 per mL × 10^3	346 per mL × 10^3	14.6	2.830 g	1.9 M1 per 5 hr	4.6 M1 per 5 hr	4.4 M1 per 5 hr	100%	Good	–
COc1cccc(Nc2nc(Cl)nc(Cl)n2)c1 [Compound 23]	50	150 ppm	–	–	–	Good	–	–	–	–	–	–	–	–	–	79%	Good	Fair (>2 mice sick)
Clc1ccc(Nc2nc(Cl)nc(Cl)n2)cc1 [Compound 2]	38	150 ppm	–	–	–	Fair	–	–	–	–	–	–	–	–	–	100%	Good	Poor (death at 840 mg/kg)
CSc1ccc(Nc2nc(Cl)nc(Cl)n2)cc1 [Compound 18]	53	150 ppm	–	–	–	Okay (transient drop, less than 50% at day 2)	–	–	–	–	–	–	–	–	–	100%	Okay	Fair (>2 mice sick)
Cc1cc(C)c(Nc2nc(Cl)nc(Cl)n2)c(C)c1 [Compound 9]	41	250 ppm	–	–	–	Good	–	–	–	–	–	–	–	–	–	88%	Good	Good
CN(c1ccc(Cl)c(Cl)c1)c1nc(Cl)nc(Cl)n1 [Compound 29]	41	150 ppm	–	–	–	Good	–	–	–	–	–	–	–	–	–	98%	Good	Fair (>2 mice sick)
COc1ccc(Nc2nc(Cl)nc(Cl)n2)cc1 [Compound 5]	33	250 ppm	–	–	–	Fair	–	–	–	–	–	–	–	–	–	100%	Poor	Good
N#Cc1cccc(Nc2nc(Cl)nc(Cl)n2)c1 [Compound 19]	50	250 ppm	–	–	–	Good	–	–	–	–	–	–	–	–	–	100%	Poor	Fair (>2 mice sick)
